Experimental data as given in US20220411388A1, “SUBSTITUTED IMIDAZOLE CARBOXAMIDES AND THEIR USE IN THE TREATMENT OF MEDICAL DISORDERS” (Bial - R&D Investments, S.A., priority 2019, published 2022).
pIC50: −log10 of the molar value. In brackets after ≈: the same amount, converted by molar mass.

What was measured:
[1] = molecular target: T1, acid ceramidase (hACR) (Homo sapiens, UniProt Q13510); assay: Acid ceramidase inhibition, biochemical fluorescent assay with cell lysates overexpressing acid ceramidase (substrate Rbm14-12); conditions: cell lysate, 1 hr preincubation at RT, pH 4.5, Rbm14-12 6.3 μM; read-out: IC50 hACR
T1 construct: expressed in transfected cells
T1 sequence (Q13510 22-395): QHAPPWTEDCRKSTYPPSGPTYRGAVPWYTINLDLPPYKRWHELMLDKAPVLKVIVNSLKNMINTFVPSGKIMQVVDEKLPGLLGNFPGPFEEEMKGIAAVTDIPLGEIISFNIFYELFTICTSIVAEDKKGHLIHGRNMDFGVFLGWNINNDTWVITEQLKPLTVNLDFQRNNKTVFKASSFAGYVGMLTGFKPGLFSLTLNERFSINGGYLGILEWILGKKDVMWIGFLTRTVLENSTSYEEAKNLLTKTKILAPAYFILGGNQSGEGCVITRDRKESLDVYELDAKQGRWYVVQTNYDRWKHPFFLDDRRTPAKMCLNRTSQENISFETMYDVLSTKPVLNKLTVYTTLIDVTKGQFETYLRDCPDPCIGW
Experimental: The ability of exemplary compounds to inhibit acid ceramidase was measured.
Cell lysates overexpressing acid ceramidase were used as the enzyme source for compound potency determination in a biochemical fluorescent assay. Briefly, compounds were preincubated with 10 μg protein of cell lysates in a dose-response manner for 1 hr at RT in the assay buffer containing 25 mM NaAC and 100 mM NaCl, pH 4.5. […] The samples were incubated with the stopping buffer at RT for 1 hr to allow the fluorescent product to be formed. […] Data were collected and used to determine the IC50 values of compounds by curve fitting to the four-parameter inhibition equation.

[2] = Compound solubility in water; type: physicochemical

Row | Compound | pIC50 [1] | solubility [2] [µg/mL]
1 | CN(C)Cc1cncc(-c2cn(C(=O)NCCc3ccccc3)cn2)c1 [Example 44, 4-(5-((Dimethylamino)methyl)pyridin-3-yl)-N-phenethyl-1H-imidazole-1-carboxamide] | 6.00 to 6.70 | 30.8 (≈ 88.1 µM)
2 | CC(C)(C)CCNC(=O)n1cnc(-c2cccnc2)c1 [Example 45, N-(3,3-Dimethylbutyl)-4-(pyridin-3-yl)-1H-imidazole-1-carboxamide] | 6.00 to 6.70 | 12.1 (≈ 44.4 µM)
3 | CC(C)CCNC(=O)n1cnc(-c2ccccn2)c1 [Example 46, N-iso-Pentyl-4-(pyridin-2-yl)-1H-imidazole-1-carboxamide] | 6.00 to 6.70 | 13.8 (≈ 53.4 µM)
4 | CC(C)CCNC(=O)n1cnc(C2CCCN(C)C2)c1 (centres unmarked) [Example 47, N-iso-Pentyl-4-(1-methylpiperidin-3-yl)-1H-imidazole-1-carboxamide] | 6.00 to 6.70 | 32.2 (≈ 116 µM)
5 | CC(C)CCNC(=O)n1cnc(C2CCN(C)CC2)c1 [Example 48, N-iso-Pentyl-4-(1-methylpiperidin-4-yl)-1H-imidazole-1-carboxamide] | 6.00 to 6.70 | 34.2 (≈ 123 µM)
6 | Cc1nc(-c2cccnc2)cn1C(=O)NCCC(C)C [Example 49, N-iso-Pentyl-2-methyl-4-(pyridin-3-yl)-1H-imidazole-1-carboxamide] | > 6.70 | 7.9 (≈ 29 µM)
7 | CC(C)CCNC(=O)n1cnc(-c2nccs2)c1 [Example 50, N-iso-Pentyl-4-(thiazol-2-yl)-1H-imidazole-1-carboxamide] | 6.00 to 6.70 | 23.5 (≈ 88.9 µM)
8 | CC(C)CCNC(=O)n1cnc(-c2cncs2)c1 [Example 51, N-iso-Pentyl-4-(thiazol-5-yl)-1H-imidazole-1-carboxamide] | 6.00 to 6.70 | 25.1 (≈ 94.9 µM)
9 | COc1nc(-c2cccnc2)cn1C(=O)NCCC1CC1 [Example 53, N-(2-Cyclopropylethyl)-2-methoxy-4-(pyridin-3-yl)-1H-imidazole-1-carboxamide] | < 6.00 | 26.5 (≈ 92.5 µM)
10 | O=C(NCCC1CC1)n1cnc(-c2cccnc2N2CCC(N3CCOCC3)CC2)c1 [Example 54, N-(2-Cyclopropylethyl)-4-(2-(4-morpholinopiperidin-1-yl)pyridin-3-yl)-1H-imidazole-1-carboxamide] | > 6.70 | 32.8 (≈ 77.3 µM)
11 | CN1CCN(C2CCN(c3ncccc3-c3cn(C(=O)NCCC4CC4)cn3)CC2)CC1 [Example 55, N-(2-Cyclopropylethyl)-4-(2-(4-(4-methylpiperazin-1-yl)piperidin-1-yl)pyridin-3-yl)-1H-imidazole-1-carboxamide] | 6.00 to 6.70 | 41.5 (≈ 94.8 µM)
12 | CC(C)CCNC(=O)n1cnc(CC2CCN(C)CC2)c1 [Example 56, N-iso-Pentyl-4-((1-methylpiperidin-4-yl)methyl)-1H-imidazole-1-carboxamide] | 6.00 to 6.70 | 21.7 (≈ 74.2 µM)
13 | COc1nc(C(C)(C)C)cn1C(=O)NCCC(C)C [Example 57, 4-(tert-Butyl)-N-isopentyl-2-methoxy-1H-imidazole-1-carboxamide] | 6.00 to 6.70 | 13.3 (≈ 49.7 µM)
14 | COc1nc(C(C)(C)C)cn1C(=O)NC(C)CC(C)C (centres unmarked) [Example 58, 4-(tert-Butyl)-2-methoxy-N-(4-methylpentan-2-yl)-1H-imidazole-1-carboxamide] | 6.00 to 6.70 | 15.1 (≈ 53.7 µM)
15 | CC(C)CC(C)NC(=O)n1cnc(-c2cccnc2)c1 (centres unmarked) [Example 59, N-(4-Methylpentan-2-yl)-4-(pyridin-3-yl)-1H-imidazole-1-carboxamide] | 6.00 to 6.70 | 22.3 (≈ 81.9 µM)
16 | CCC(C)CNC(=O)n1cnc(-c2cccnc2)c1 (centres unmarked) [Example 60, N-(2-Methylbutyl)-4-(pyridin-3-yl)-1H-imidazole-1-carboxamide] | 6.00 to 6.70 | 25.6 (≈ 99.1 µM)
17 | O=C(NC1CCCCC1)n1cnc(-c2cccnc2)c1 [Example 61, N-Cyclohexyl-4-(pyridin-3-yl)-1H-imidazole-1-carboxamide] | < 6.00 | 23 (≈ 85.1 µM)
18 | COc1ccc(-c2cn(C(=O)NC3CCCCC3)cn2)cn1 [Example 62, N-Cyclohexyl-4-(6-methoxypyridin-3-yl)-1H-imidazole-1-carboxamide] | < 6.00 | 0.6 (≈ 2 µM)
19 | CCOc1nc(-c2ccccn2)cn1C(=O)NCCC1CC1 [Example 63, N-(2-Cyclopropylethyl)-2-ethoxy-4-(pyridin-2-yl)-1H-imidazole-1-carboxamide] | < 6.00 | 24.1 (≈ 80.2 µM)
20 | CCOc1nc(-c2cccnc2)cn1C(=O)NCCC1CC1 [Example 64, N-(2-Cyclopropylethyl)-2-ethoxy-4-(pyridin-3-yl)-1H-imidazole-1-carboxamide] | < 6.00 | 16.8 (≈ 55.9 µM)

Row | Compound | pIC50 [1] | solubility [2] [µg/mL]
21 | CC(C)Oc1nc(-c2cccnc2)cn1C(=O)NCCC1CC1 [Example 65, N-(2-Cyclopropylethyl)-2-isopropoxy-4-(pyridin-3-yl)-1H-imidazole-1-carboxamide] | 6.00 to 6.70 | 25 (≈ 79.5 µM)
22 | O=C(NCCC1CC1)n1cc(-c2cccnc2)nc1OC1CC1 [Example 66, 2-Cyclopropoxy-N-(2-cyclopropylethyl)-4-(pyridin-3-yl)-1H-imidazole-1-carboxamide] | < 6.00 | 25 (≈ 80 µM)
23 | CCOc1nc(-c2cccnc2)cn1C(=O)NCCC(C)C [Example 67, 2-Ethoxy-N-iso-pentyl-4-(pyridin-3-yl)-1H-imidazole-1-carboxamide] | < 6.00 | 8 (≈ 26.5 µM)
24 | CSc1nc(-c2cccnc2)cn1C(=O)NCCC1CC1 [Example 67a] | 6.00 to 6.70 | 23 (≈ 76.1 µM)
25 | CCOc1nc(-c2ccc(OC)nc2)cn1C(=O)NCCC1CC1 [Example 68, N-(2-Cyclopropylethyl)-2-ethoxy-4-(6-methoxypyridin-3-yl)-1H-imidazole-1-carboxamide] | < 6.00 | 2 (≈ 6.05 µM)
26 | O=C(NCCC1CC1)n1cnc(-c2cscn2)c1 [Example 69, N-(2-Cyclopropylethyl)-4-(thiazol-4-yl)-1H-imidazole-1-carboxamide] | 6.00 to 6.70 | 32 (≈ 122 µM)
27 | COc1ccc(-c2cn(C(=O)NCCC3CC3)cn2)cn1 [Example 70, N-(2-Cyclopropylethyl)-4-(6-methoxypyridin-3-yl)-1H-imidazole-1-carboxamide] | 6.00 to 6.70 | 1.3 (≈ 4.54 µM)
28 | COc1ccc(-c2cn(C(=O)NCCC3(C(F)(F)F)CC3)cn2)cn1 [Example 71, 4-(6-Methoxypyridin-3-yl)-N-(2-(1-(trifluoromethyl)cyclopropyl)ethyl)-1H-imidazole-1-carboxamide] | > 6.70 | 22 (≈ 62.1 µM)
29 | O=C(NCCC1CC1)n1cnc(-c2ccns2)c1 [Example 72, N-(2-Cyclopropylethyl)-4-(iso-thiazol-5-yl)-1H-imidazole-1-carboxamide] | 6.00 to 6.70 | 22 (≈ 83.9 µM)
30 | Cc1nc(-c2cn(C(=O)NCCC3CC3)cn2)co1 [Example 73, N-(2-Cyclopropylethyl)-4-(2-methyloxazol-4-yl)-1H-imidazole-1-carboxamide] | 6.00 to 6.70 | 26 (≈ 99.9 µM)
31 | O=C(NCCC1CC1)n1cnc(-n2ccc(F)n2)c1 [Example 74, N-(2-Cyclopropylethyl)-4-(3-fluoro-1H-pyrazol-1-yl)-1H-imidazole-1-carboxamide] | < 6.00 | 34 (≈ 129 µM)
32 | COc1nc(C2CCCC2)cn1C(=O)NCCC(C)C [Example 75, 4-Cyclopentyl-N-iso-pentyl-2-methoxy-1H-imidazole-1-carboxamide] | 6.00 to 6.70 | 13 (≈ 46.5 µM)
33 | COc1nc(C(C)C)cn1C(=O)NCCC(C)C [Example 76] | 6.00 to 6.70 | 20 (≈ 78.9 µM)
34 | CCc1cn(C(=O)NCCC(C)C)c(OC)n1 [Example 77, 4-Ethyl-N-iso-pentyl-2-methoxy-1H-imidazole-1-carboxamide] | 6.00 to 6.70 | 23 (≈ 96.1 µM)
35 | COc1nccn1C(=O)NCCC(C)C [Example 78, N-iso-pentyl-2-methoxy-1H-imidazole-1-carboxamide] | 6.00 to 6.70 | 28 (≈ 133 µM)
36 | CC(C)CC(C)NC(=O)n1cnc(C(C)(C)C)c1 (centres unmarked) [Example 79, 4-(tert-Butyl)-N-(4-methylpentan-2-yl)-1H-imidazole-1-carboxamide] | > 6.70 | 11 (≈ 43.8 µM)
37 | CSc1nc(C(C)(C)C)cn1C(=O)NCCC(C)C [Example 80, 4-(tert-Butyl)-N-iso-pentyl-2-(methylthio)-1H-imidazole-1-carboxamide] | > 6.70 | 0.2 (≈ 0.706 µM)
38 | COc1nc(C(C)(C)C#N)cn1C(=O)NCCC(C)C [Example 81, 4-(2-Cyanopropan-2-yl)-N-iso-pentyl-2-methoxy-1H-imidazole-1-carboxamide] | < 6.00 | 23 (≈ 82.6 µM)
39 | COc1nc(C2(C)CCC(=O)N2C)cn1C(=O)NCCC(C)C (centres unmarked) [Example 82, 4-(1,2-Dimethyl-5-oxopyrrolidin-2-yl)-N-iso-pentyl-2-methoxy-1H-imidazole-1-carboxamide] | < 6.00 | 31 (≈ 96.2 µM)
40 | COc1nc(-c2cccnn2)cn1C(=O)NCCC(C)C [Example 83, N-iso-Pentyl-2-methoxy-4-(pyridazin-3-yl)-1H-imidazole-1-carboxamide] | 6.00 to 6.70 | 33 (≈ 114 µM)
